Entries after “also recorded” stand apart in the source; their conditions may differ. Peptide text beside a SMILES is read from it.
Columns and labels:
[1] = system: adult human dermal fibroblast; assay: Screening experiment of adult human dermal fibroblast survival in medium without serum with 1 nM PDGF-BB; format: cell-based; details: 6 days of incubation
[2] = system: Adult human dermal fibroblasts CF31 cells; assay: Fibroblast metabolism (XTT) assay with 1 nM PDGF-BB, 6 days; format: cell-based; details: for bioactivity as determined by fibroblast metabolism assay: FIG. 2, XTT OD 450 nm
Experimental: Adult human dermal fibroblasts CF31 cells at 1000 cells/well were seeded in a collagen-coated 96-well plate in DMEM overnight, then 1 nM PDGF-BB with peptides at indicated doses was added and cells were incubated at 37° C. for 6 days. Then cell metabolism was measured by XTT assay by reading OD at 450 nm. Each point represents the mean of 6 replicates with a typical SD=5-10% around the mean (not shown for graft clarity).
Adult human dermal fibroblasts, CF31, at 1000 cells/well were incubated at 37° C. in a collagen-coated 96-well plate with DMEM, 1 nM PDGF-BB with peptides at indicated doses for 6 days and then cell metabolism was measured by XTT assay, reading OD at 450 nm. Data represent the mean of 6 replicates.
P12, P46, cNP7 and cNP8 were compared for their ability to promote the survival of adult human dermal fibroblasts in the presence of PDGF-BB. Adult human dermal fibroblasts at 1000 cells/well were incubated in a collagen-coated 96-well plate with DMEM, 1 nM PDGF-BB with peptides at indicated doses for 6 days and then cell metabolism was measured by XTT assay. Data represent the mean of 6 replicates (FIG. 4).

PDGF-BB = PDGF-BB (Homo sapiens, UniProt P01127); assay: Surface plasmon resonance (Biacore) binding to growth factor; details: plasmon surface resonance (Biacore T200)
PDGF-BB, sequence (P01127 82-190 limits assumed): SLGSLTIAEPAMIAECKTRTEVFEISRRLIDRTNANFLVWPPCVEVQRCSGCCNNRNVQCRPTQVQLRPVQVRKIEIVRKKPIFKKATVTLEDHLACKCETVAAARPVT
Experimental: (§1) To study the binding activities of these peptides, real time interactions of P12, P46, and cNP8 with growth factors were determined by plasmon surface resonance (Biacore T200).
In the Biacore2000 system, binding constants from kinetic data are determined by passing varying concentrations of FN peptides (analytes) over chip surfaces which are coupled with PDGF-BB (ligand), respectively. All kinetic experiments are carried out at 20° C. at a flow rate of 20 μl/min. For mass transport experiments, each analyte is injected at a fixed concentration and run at flow rates ranging from 5 to 75 μl/min. All analytes are injected over PDGF-BB ligand surfaces as well as over a control surface for 120 s, followed by 300 s of dissociation in running buffer. Regeneration of the sensor chip for subsequent injections is accomplished by pulse of 0.1% SDS. Mass transport experiments have detected little difference in response at different flow rates thus validating data from kinetic experiments. Sensorgrams are prepared and globally fitted using nonlinear least-squares analysis and numerical integration of the differential rate equations with the Biacore Bioevaluation software. […] Each data set, which consists of a series of sensorgrams from injections of different concentration of analyte over the same surface, is analyzed using kinetic models from Bioevaluation software.

[3] = target: Transforming Growth Factor-Beta1 (TGF-β1) (Homo sapiens, UniProt P01137); assay: as above; details: plasmon surface resonance (Biacore T200)
Transforming Growth Factor-Beta1 (TGF-β1), sequence (P01137 279-390 limits assumed, species assumed): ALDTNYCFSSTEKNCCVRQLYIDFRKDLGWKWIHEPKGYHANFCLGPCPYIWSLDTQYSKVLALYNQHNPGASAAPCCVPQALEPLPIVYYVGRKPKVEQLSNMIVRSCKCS
Experimental: as §1

[4] = target: epidermal growth factor (EGF) (Homo sapiens, UniProt P01133); assay: as above; details: plasmon surface resonance (Biacore T200)
epidermal growth factor (EGF), sequence (P01133 971-1023 limits assumed, species assumed): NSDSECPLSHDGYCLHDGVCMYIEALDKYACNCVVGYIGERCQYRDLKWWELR
Experimental: as §1

[5] = target: insulin-like growth factor-1 (IGF-1) (Homo sapiens, UniProt P05019); assay: as above; details: plasmon surface resonance (Biacore T200)
insulin-like growth factor-1 (IGF-1), sequence (P05019 49-118, species assumed): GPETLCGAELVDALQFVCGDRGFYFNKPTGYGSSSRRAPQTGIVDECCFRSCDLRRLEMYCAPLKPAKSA
Experimental: as §1

[6] = target: T1, human neutrophil elastase (Homo sapiens, UniProt P08246)
T1 sequence (P08246 30-267): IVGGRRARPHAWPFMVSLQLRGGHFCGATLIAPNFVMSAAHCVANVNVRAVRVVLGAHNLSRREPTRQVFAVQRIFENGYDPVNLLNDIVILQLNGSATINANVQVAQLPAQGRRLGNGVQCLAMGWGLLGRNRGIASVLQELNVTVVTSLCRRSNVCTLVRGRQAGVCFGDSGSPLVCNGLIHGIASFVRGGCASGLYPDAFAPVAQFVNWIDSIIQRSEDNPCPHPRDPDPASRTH
Experimental: P46 was incubated with purified human neutrophil elastase at 1:100 enzyme:substrate molar ratio at 37° C. for 4 h (3A) or 24 h (3B). Peptides stability was determined by MALDI-TOF analysis.
Peptides' stability was determined by MALDI-TOF analysis.
The reaction was stopped with formic acid and the reaction mixture was analyzed by mass spectroscopy.
To determine the sensitivity of P46 to elastase digestion, P46 was synthesized and digested with elastase. […] P46 was incubated with purified human neutrophil elastase at 1:100 enzyme:substrate molar ratio at 37° C. for 4 h (FIG. 3A) or 24 h (FIG. 3B). The elastase-generated smaller peptides were determined by MALDI-TOF analysis.
Peptide's stability was determined by MALDI-TOF analysis.

burn wounds [7] = assay: Topical treatment of porcine deep partial-thickness burns (PLO gel); format: in vivo, pig; details: 48-hour debrided wounds, 10 days after wounding, vs control or cP12 (FIG. 6)
Experimental: Four female, 20-30 kg, domestic pigs were used for cutaneous wound procedures.
Study Protocol: The animals were sedated with Talazine (Tiletamine and Zolazepam, Fort Dodge Lab, Fort Dodge, Iowa) 5 mg/kg IM. The pigs were then intubated endotracheally and maintained under a surgical plane of anesthesia with isoflurane 0.5-2.5% in room air. The flank and back hair were clipped with electric hair clippers and the skin was scrubbed with a povidone iodine solution.
Standardized deep partial-thickness burns were created on the animals' backs and flanks by applying a 2.5-cm by 2.5-cm, 150-gram aluminum bar preheated in hot water to 80° C. The burns were created on either side of the vertebral column between the forelegs and hind legs. The heated bar was wiped dry just prior to application to prevent water droplets from creating a steam burn on the skin. The bar was then placed at a vertical position perpendicular to the skin's surface and applied for a period of 20 seconds with all pressure supplied by gravity. […] 24 burns were evenly distributed on both sides of the back of four pigs. […] Debridement was performed by gently rubbing dry gauze against the surface of the burn until the necrotic epidermis was peeled away from the entire burn surface. Interventions: On the back skin of each pig, equal sets of 4 burns were randomly treated with one of the 6 study treatments. […]

burn wounds [8] = assay: Intravenous treatment in porcine vertical progression burn model; format: in vivo, pig; details: intravenous infusion 0.001, 0.01 or 0.1 mg/kg
Experimental: The vertical progression burn model (as shown in above topical experiment) was used to create burns on the backs of each of 4 pigs. Twenty burns (80° C./20 seconds) were made on the backs of each pig—one set of burns was made 8 hours prior to infusion, the second set was made 4 hours prior to infusion. Three pigs were treated with infusions of 0.001, 0.01 or 0.1 mg/kg of cNP8 and one pig was treated with an infusion of buffer, as control. Lyophilized cNP8 was reconstituted in PBS (11.6 mg/ml corrected-based on 75% pure) to get a 5 mM stock solution in the laboratory and filtered with a syringe filter with 0.22 um membrane. The concentration of filtered cNP8 solution was determined by reading OD280 and the concentration was calculated based on OD280=6.76 per mM cNP8. The cNP8 was diluted to 5 mM with PBS as necessary. The filtered cNP8 solution was aliquoted and stored at −80° C. Just before infusion, cNP8 was further diluted: a) 1:270 with PBS to get a 0.019 mM cNP8 solution. The injection amount was 3 ml/kg body weight of 0.019 mM cNP8 which is equal to 0.1 mg/kg body weight. b) 1:2700 with PBS to get a 0.0019 mM cNP8 solution. The injection was 3 ml/kg body weight of 0.0019 mM cNP8 which is equal to 0.01 mg/kg body weight. c) 1:27000 with PBS to get a 0.00019 mM cNP8 solution. The injection amount was 3 ml/kg body weight of 0.00019 mM cNP8 which is equal to 0.001 mg/kg body weight. […]

[9] = system: human neutrophil elastase; assay: purified human neutrophil elastase; details: up to 24 h

HISKYILRGRPKNSV (NP10 peptide) [engineered peptide designed from P46]
biological activity on screening experiment of fibroblast survival [1]: minimal biological activity

HISKYILRWRPKNSV (polypeptide according to formula I) [P46]
bioactivity as determined by fibroblast metabolism assay [2]: much higher bioactivity than that of P12
promotion of survival of adult human dermal fibroblasts in the presence of PDGF-BB ([2]; FIG. 4, XTT): promoted the survival of adult human dermal fibroblasts
binding to PDGF-BB (PDGF-BB): bind
binding to TGF-β1 [3]: bind
binding to EGF [4]: did not bind
binding to IGF-1 [5]: did not bind
sensitivity to elastase digestion [6]: retained some sensitivity to elastase digestion

HISKYILRWGPKNSV (NP11 peptide) [engineered peptide designed from P46]
biological activity on screening experiment of fibroblast survival [1]: minimal biological activity

CC[C@H](C)[C@@H]1NC(=O)[C@H](Cc2c[nH]cn2)NC(=O)[C@H](C(C)C)NC(=O)[C@H](CO)NC(=O)CNC(=O)[C@H](CCCCN)NC(=O)[C@@H]2CCCN2C(=O)[C@H](CCCNC(=N)N)NC(=O)[C@H](Cc2c[nH]c3ccccc23)NC(=O)[C@H](CCCNC(=N)N)NC(=O)[C@H](CC(C)C)NC(=O)CNC(=O)[C@H](Cc2ccc(O)cc2)NC(=O)[C@H](CCCCN)NC(=O)CNC1=O [cNP8, HIGKYGLRWRPKGSV] (cyclo(HIGKYGLRWRPKGSV))
bioactivity compared with other peptides ([2]; FIG. 4, XTT): equivalent or better bioactivity; also recorded: much higher bioactivity than that of P12
promotion of survival of adult human dermal fibroblasts in the presence of PDGF-BB ([2]; FIG. 4, XTT): promoted the survival of adult human dermal fibroblasts
binding to PDGF-BB (PDGF-BB): bind
binding to TGF-β1 [3]: bind
binding to EGF [4]: did not bind
binding to IGF-1 [5]: did not bind
re-epithelialization (burn wounds [7]): markedly increased
re-epithelialization (burn wounds [8]; day 10 post-injury (FIG. 7)): markedly increased; also recorded: increase of re-epithelialization
re-epithelialization (burn wounds [8]; day 14 post-injury (FIG. 8)): markedly increased; also recorded: increase of re-epithelialization

HIGKYGLRWRPKNSV [cNP7, cyclic form of engineered peptide NP7]
promotion of survival of adult human dermal fibroblasts in the presence of PDGF-BB ([2]; FIG. 4, XTT): promoted the survival of adult human dermal fibroblasts

PSHISKYILRWRPK [cP12]
degradation by neutrophil elastase [6]: remain sensitive to this endopeptidase
number of elastase-cleavage sites [6]: five

PSHISKYILRWRPK
fragment found [9]: KYILRWRPKPSHIS; also recorded: RWRPKPSHISKYIL

HISKYILGWRPKNSV (NP9 peptide) [engineered peptide designed from P46]
biological activity on screening experiment of fibroblast survival [1]: minimal biological activity

SKYILRWRPKNSV (P45 peptide) [peptide produced by elastase digestion of FN III1-C]
bioactivity as determined by fibroblast metabolism assay [2]: little bioactivity

HIGKYGLRWRPKGSV (polypeptide according to formula I) [NP8, engineered peptide designed from P46]
biological activity on screening experiment of fibroblast survival [1]: best biological activity

cyclo(HIGKYGLRWRPKGSV) (SMILES CC[C@H](C)[C@@H]1NC(=O)[C@H](Cc2c[nH]cn2)NC(=O)[C@H](C(C)C)NC(=O)[C@H](CO)NC(=O)CNC(=O)[C@H](CCCCN)NC(=O)[C@@H]2CCCN2C(=O)[C@H](CCCNC(=N)N)NC(=O)[C@H](Cc2c[nH]c3ccccc23)NC(=O)[C@H](CCCNC(=N)N)NC(=O)[C@H](CC(C)C)NC(=O)CNC(=O)[C@H](Cc2ccc(O)cc2)NC(=O)[C@H](CCCCN)NC(=O)CNC1=O)
not cleaved ([9]; 37° C.): A large majority of intact peptide was retained at 24 h
